Results as given in patent publication US20100159528A1, “POLYMERASE STABILIZATION” (GE HEALTHCARE BIO-SCIENCE CORP., priority 2007, published 2010).

Legend:
Tba DNA polymerase = experiment: PCR assay for detergents screening: amplification of a 1 kb λDNA fragment with Tba purified and stored without detergents; format: biochemical, Thermococcus barossii; details: for % Activity relative to TWEEN ® 20: PCR yield of 1 kb λDNA fragment, Agilent Bioanalyzer; for PCR yield higher than the positive control (TWEEN® 20): PCR reactions containing the detergent; for stabilization and activation of DNA polymerase (in words): detergent added into PCR reaction mix at 0.01% and 0.1% (FIG. 2)
Description: In this experiment, two lots of DNA polymerase that were purified and stored in buffers with/without detergents were tested. Each of the tested DNA polymerase was first diluted into 20 folds in buffers with and without of TWEEN® 20, respectively, prior to PCR and then equal units of enzyme was added into PCR mix. PCRs were performed in 25 μl volume in with 200 nM of forward and reverse primers, 200 μM dNTP, 1.0 unit of Tba and 1.0 ng template DNA. 1 kb human genomic DNA and 1 kb lambda DNA fragments were amplified. Reaction buffer contains 10 mM Tris-HCl, pH 9.0, 50 mM KCl, and 1.5 mM MgCl2. The PCR reaction was started by 2 minutes initial heating at 95° C., followed by 35 cycles with 95° C. for 30 s, 55° C. 30 s, and 72° C. for 60 s, and then final extension at 72° C. for 5 min. The PCR products were analyzed with Agilent Bioanalyzer.
The PCR assay was used for the detergents screening. The tested detergents were first dissolved in molecular biology grade water and neutralized to pH7 with a sodium hydroxide solution to make final concentration of 5% (W/V) stock solutions. The 5% detergent solutions were then used for the screening by either adding them into enzyme dilution buffer or spiked into PCR mix. The amplification of a 1 kb λDNA fragment was used test the effect of each detergent on the Tba stability and activity. The PCR conditions are the same as described earlier. Tba that was purified and stored in the absence of detergents was used for the tests. The tested detergents were spiked into the PCR reactions at a final concentration of 0.01%, 0.05%, and 0.1%, respectively. The PCR yields were quantitated by Agilent Bioanalyzer.

δJSER DNA polymerase = experiment: Stabilization/activation test for δJSER DNA polymerase; format: biochemical, JSER; details: compared with the effect on Tba
Description: (§1) The stabilization functions of these two detergents are tested for δJSER DNA polymerase as well. […] In addition, the stabilization effects of these two detergents on DNA polymerase were also tested in the activity assay and thermostability assay.

DNA polymerase [1] = details: for effect of high detergent concentration on stability and activity: Concentrations above 0.5% (W/V)
Description: For ♦, each detergent is present at the indicated amount.
as §1

DNA polymerase [2] = tested on: DNA polymerase
Description: An enzyme will have a maximal activity rate, which is preferably measured under conditions of saturating substrate concentration and at a selected set of environmental conditions including temperature, pH and salt concentration. For the DNA polymerases described herein, preferred conditions for measuring activity are 25 mM TAPS (tris-hydroxymethyl 25 methylaminopropane sulfonic acid) buffer, pH 9.3 (measured at 25° C.), 50 mM KCl, 2 mM MgCl2, 1 mM 2- mercaptoethanol, 0.2 mM each of dGTP, dCTP, dTTP, 0.2 mM [α-33P]-dATP (0.05-0.1 Ci/mmol) and 0.4 mg/mL activated salmon sperm DNA. The reaction is allowed to proceed at 74° C. Exemplary methods for measuring the DNA polymerase activity of an enzyme under such 30 conditions are provided hereinafter.
as §1

[3] = Detergent Conc. 0.01% in PCR reaction
[4] = Detergent Conc. 0.05% in PCR reaction
[5] = Detergent Conc. 0.10% in PCR reaction

Row | Substance | formation of PCR products depending on detergent in the enzyme dilution buffer (Tba DNA polymerase; Tba diluted 20 fold in buffer with/without TWEEN® 20, 1 kb λDNA and human genomic DNA fragments (FIG. 1)) | activation of δJSER DNA polymerase (δJSER DNA polymerase) | stabilization effect in the thermostability test compared with TWEEN® 20 (DNA polymerase [1]) | DNA polymerase remaining active after heating (DNA polymerase [1]; 95° C., 15 minutes, 1x PCR buffer, compared with NP40 and TWEEN® 20 (FIG. 3)) | effect of high detergent concentration on stability and activity (DNA polymerase [1]) | % Activity relative to TWEEN ® 20 (Tba DNA polymerase; [3]) [%] | % Activity relative to TWEEN ® 20 (Tba DNA polymerase; [4]) [%] | % Activity relative to TWEEN ® 20 (Tba DNA polymerase; [5]) [%] | PCR yield higher than the positive control (TWEEN® 20) (Tba DNA polymerase) | stabilization and activation of DNA polymerase (in words) (Tba DNA polymerase) | stabilization effect in the activity assay compared with TWEEN® 20 (DNA polymerase [2])
1 | TWEEN® 20 [reference compound] | PCR products were only obtained from the reactions that the enzymes were diluted in a buffer containing the detergent |  |  |  |  |  |  |  |  |  | 
2 | polyoxyethylene nonylphenol ether, phosphate [RHODAFAC™ RE-960] |  | same activation | same or better stabilization effects | more DNA polymerase remains active | do not improve stability but do not decrease activity | 130.7 | 165.8 | 167.1 | about 30% | work very well in stabilization and activation of DNA polymerase | same or better stabilization effects
3 | polyoxyethylene tridecyl ether, phosphate [RHODAFAC™ RS-960] |  | same activation | same or better stabilization effects |  | do not improve stability but do not decrease activity | 101.8 | 167.9 | 178.6 | about 30% | work very well in stabilization and activation of DNA polymerase | same or better stabilization effects
